Data from patent publication EP4813381A1, “PHARMACEUTICAL USE OF GUAIANE SESQUITERPENE DERIVATIVE” (Nanjing University Of Chinese Medicine, priority 2023, dated 2025).

What was measured:
MDSCs and T cells = test: T cell proliferation in a co-culture model of MDSCs and T cells (flow cytometry); format: cell-based, mice; conditions: MDSCs treated with 1 µM compound for 12 h, 48 h co-culture with T cells (1:1), compared to the control group
Description: Under sterile conditions, the tibia was removed, both ends of the bone were cut, and bone marrow was repeatedly flushed into a 15 mL centrifuge tube using a 1 mL syringe filled with culture medium. Centrifuge at 1600 rpm for 5 min to collect bone marrow cells. […] The spleen cell suspension was then transferred into a 15 mL centrifuge tube. Centrifuge at 1600 rpm for 5 min to collect T cells. Wash twice with 1×PBS. Resuspend the centrifuged T cells in 1 mL PBS and add 1 mL of 10 µM CFDA-SE solution. Incubate at room temperature for 8 min. […] After drug administration, collect MDSC cells into centrifuge tubes. Centrifuge at 1600 rpm for 5 min, remove supernatant, resuspend in 1 mL fresh medium, and plate. Add 1 mL stimulated activated T cells (1:1 ratio) for 48 h co-culture. After incubation, collect cells into centrifuge tubes, wash twice with PBS, and incubate with Fc antibody at room temperature in the dark for 10 min. Add CD3-labeled flow cytometry antibody and incubate at 4 °C in the dark for 30 min. After incubation, wash cells with PBS, resuspend in 300 µL PBS, and analyze by flow cytometry.

[1] = Conversion rate of salt-form prodrugs to parent compound in HEPES buffer solution; format: physicochemical
Description: Adjust the pH to 7.4 using 0.5 M NaOH, then dilute to a final volume 100 mL with distilled water.
(§1) Sample Analysis: Dissolve 0.6 mg of the compound in 250 µl of deionized water separately. Add 250 µl of mouse serum or HEPES 7.4 solution to the sample, incubate at a constant temperature of 37 °C, and collect samples at different time points. Pipette 20 µl of the sample to an EP tube, add 60 µl of methanol, vortex to mix thoroughly, and centrifuge at 12,000 rpm at 4 °C for 10 min. At 1 h, 2 h, 4 h, 8 h, and 12 h respectively, collect the supernatant for HPLC analysis. Inject 10 µL of sample and record the corresponding peak areas.

[2] = Conversion rate of salt-form prodrugs to parent compound in mouse plasma; format: in vitro ADME; conditions: 37 °C
Description: Pharmaceutically acceptable salts of guaiane-type sesquiterpene lactone derivatives were selected and evaluated for their conversion rates to Compound 1 and Compound 83 in plasma and HEPES buffer, with results shown in Tables 2-1, 2-2, 3-1, and 3-2.
Plasma Preparation: Collect mouse plasma into an EP tube pre-loaded with sodium heparin, centrifuge at 8000 rpm for 10 minutes at 4°C, and then collect the supernatant.
as §1, with “areas. Chromatographic conditions: Hanbang C18 column (4.6 × 250 mm, 5 µm); mobile phase: acetonitrile: […] ammonium formate solution = 60:40; flow rate 1.0 mL/min; detection wavelength 210 nm; column temperature 30 °C. [drawing 171] Table 2-1. Conversion Rate of Compounds 20-42 to Compound 1 at Different Time Points in HEPES Buffer Solution” for “areas.”

[3] = conversion to Compound 1, HEPES buffer pH 7.4, 37 °C, 1 h
[4] = conversion to Compound 1, HEPES buffer pH 7.4, 37 °C, 2 h
[5] = conversion to Compound 1, HEPES buffer pH 7.4, 37 °C, 4 h
[6] = conversion to Compound 1, HEPES buffer pH 7.4, 37 °C, 8 h
[7] = conversion to Compound 1, HEPES buffer pH 7.4, 37 °C, 12 h
[8] = conversion to Compound 1, mouse plasma, 1 h
[9] = conversion to Compound 1, mouse plasma, 2 h
[10] = conversion to Compound 1, mouse plasma, 8 h
[11] = conversion to Compound 1, mouse plasma, 12 h
[12] = conversion to Compound 83, HEPES buffer pH 7.4, 37 °C, 1 h
[13] = conversion to Compound 83, HEPES buffer pH 7.4, 37 °C, 2 h
[14] = conversion to Compound 83, HEPES buffer pH 7.4, 37 °C, 4 h
[15] = conversion to Compound 83, HEPES buffer pH 7.4, 37 °C, 8 h
[16] = conversion to Compound 83, HEPES buffer pH 7.4, 37 °C, 12 h
[17] = conversion to Compound 83, mouse plasma, 1 h
[18] = conversion to Compound 83, mouse plasma, 2 h
[19] = conversion to Compound 83, mouse plasma, 4 h
[20] = conversion to Compound 83, mouse plasma, 8 h
[21] = conversion to Compound 83, mouse plasma, 12 h

CN(C)C[C@@H]1C(=O)O[C@H]2[C@H]1CC[C@@]1(C)C[C@]13CC[C@@](C)(O)[C@H]23 [compound 2]
T-cell proliferation rate (%) (MDSCs and T cells): ++ (T-cell proliferation rate within the 20-40% range compared to the control group)

CN(C)C[C@@H]1C(=O)O[C@H]2[C@H]1CC[C@@]1(C)C[C@]13CC[C@@](C)(O)[C@H]23 [compound 41]
Release rate [1, 3]: 7.0%
Release rate [1, 4]: 16.2%
Release rate [1, 5]: 27.3%
Release rate [1, 6]: 43.4%
Release rate [1, 7]: 53.2%
Release rate [2, 8]: 7.8%
Release rate [2, 9]: 17.2%
Release rate ([2]; conversion to Compound 1, mouse plasma, 4 h): 28.0%
Release rate [2, 10]: 46.1%
Release rate [2, 11]: 54.8%

CN(C)C[C@@H]1C(=O)O[C@H]2[C@H]1CC[C@@]1(C)C[C@]13CC[C@@](C)(O)[C@H]23 [compound 42]
Release rate [1, 3]: 7.0%
Release rate [1, 4]: 15.0%
Release rate [1, 5]: 25.2%
Release rate [1, 6]: 42.8%
Release rate [1, 7]: 52.3%
Release rate [2, 8]: 6.3%
Release rate [2, 9]: 14.2%
Release rate [2, 10]: 41.0%
Release rate [2, 11]: 47.2%

CC1CCN(C[C@@H]2C(=O)O[C@H]3[C@H]2CC[C@@]2(C)C[C@]24CC[C@@](C)(O)[C@H]34)CC1 [compound 43]
T-cell proliferation rate (%) (MDSCs and T cells): + (T-cell proliferation rate within the 0-20% range compared to the control group)

CC(C)(C)OC(=O)N1CCN(C[C@@H]2C(=O)O[C@H]3[C@H]2CC[C@@]2(C)C[C@]24CC[C@@](C)(O)[C@H]34)CC1 [compound 44]
T-cell proliferation rate (%) (MDSCs and T cells): + (T-cell proliferation rate within the 0-20% range compared to the control group)

CN(C)C[C@@H]1C(=O)O[C@H]2[C@H]1CC[C@@]1(C)C[C@]13C[C@@H](O)[C@@](C)(O)[C@H]23 [compound 60]
T-cell proliferation rate (%) (MDSCs and T cells): + (T-cell proliferation rate within the 0-20% range compared to the control group)

CC1=C2[C@H]3OC(=O)[C@@H](CN(C)C)[C@@H]3CC[C@@]3(C)C[C@@]23CC1 [compound 62]
T-cell proliferation rate (%) (MDSCs and T cells): + (T-cell proliferation rate within the 0-20% range compared to the control group)

CCC(=O)O[C@]1(C)CC[C@@]23C[C@]2(C)CC[C@@H]2[C@H](CC(=O)[C@H]2CN(C)C)[C@H]31 [compound 63]
T-cell proliferation rate (%) (MDSCs and T cells): + (T-cell proliferation rate within the 0-20% range compared to the control group)

C=C1C(=O)O[C@H]2[C@H]1CCC(C)=C1CC[C@@](C)(OC(=O)NC)[C@@H]12 [compound 64]
T-cell proliferation rate (%) (MDSCs and T cells): +++ (T-cell proliferation rate >40% compared to the control group)

C=C1C(=O)O[C@H]2[C@H]1CCC(C)=C1CC[C@@](C)(OC(=O)NCC)[C@@H]12 [compound 65]
T-cell proliferation rate (%) (MDSCs and T cells): + (T-cell proliferation rate within the 0-20% range compared to the control group)

C=C1C(=O)O[C@H]2[C@H]1CCC(C)=C1CC[C@@](C)(OC(=O)NCCC)[C@@H]12 [compound 66]
T-cell proliferation rate (%) (MDSCs and T cells): + (T-cell proliferation rate within the 0-20% range compared to the control group)

C=C1C(=O)O[C@H]2[C@H]1CCC(C)=C1CC[C@@](C)(OC(=O)NCCCC)[C@@H]12 [compound 67]
T-cell proliferation rate (%) (MDSCs and T cells): ++ (T-cell proliferation rate within the 20-40% range compared to the control group)

C=C1C(=O)O[C@H]2[C@H]1CCC(C)=C1CC[C@@](C)(OC(=O)NC(C)C)[C@@H]12 [compound 68]
T-cell proliferation rate (%) (MDSCs and T cells): + (T-cell proliferation rate within the 0-20% range compared to the control group)

C=C1C(=O)O[C@H]2[C@H]1CCC(C)=C1CC[C@@](C)(OC(=O)NC(CC)CC)[C@@H]12 [compound 69]
T-cell proliferation rate (%) (MDSCs and T cells): ++ (T-cell proliferation rate within the 20-40% range compared to the control group)

C=C1C(=O)O[C@H]2[C@H]1CCC(C)=C1CC[C@@](C)(OC(=O)NC3CC3)[C@@H]12 [compound 70]
T-cell proliferation rate (%) (MDSCs and T cells): + (T-cell proliferation rate within the 0-20% range compared to the control group)

C=C1C(=O)O[C@H]2[C@H]1CCC(C)=C1CC[C@@](C)(OC(=O)NCCO)[C@@H]12 [compound 71]
T-cell proliferation rate (%) (MDSCs and T cells): +++ (T-cell proliferation rate >40% compared to the control group)

C=C1C(=O)O[C@H]2[C@H]1CCC(C)=C1CC[C@@](C)(OC(=O)NCCCO)[C@@H]12 [compound 72]
T-cell proliferation rate (%) (MDSCs and T cells): ++ (T-cell proliferation rate within the 20-40% range compared to the control group)

C=C1C(=O)O[C@H]2[C@H]1CCC(C)=C1CC[C@@](C)(OC(=O)NCCOC)[C@@H]12 [compound 74]
T-cell proliferation rate (%) (MDSCs and T cells): +++ (T-cell proliferation rate >40% compared to the control group)

C=C1C(=O)O[C@H]2[C@H]1CCC(C)=C1CC[C@@](C)(OC(=O)NCCCOC)[C@@H]12 [compound 75]
T-cell proliferation rate (%) (MDSCs and T cells): ++ (T-cell proliferation rate within the 20-40% range compared to the control group)

C=C1C(=O)O[C@H]2[C@H]1CCC(C)=C1CC[C@@](C)(OC(=O)NCCOCCO)[C@@H]12 [compound 76]
T-cell proliferation rate (%) (MDSCs and T cells): ++ (T-cell proliferation rate within the 20-40% range compared to the control group)

C=C1C(=O)O[C@H]2[C@H]1CCC(C)=C1CC[C@@](C)(OC(=O)NCCN(C)C)[C@@H]12 [compound 77]
T-cell proliferation rate (%) (MDSCs and T cells): + (T-cell proliferation rate within the 0-20% range compared to the control group)

C=C1C(=O)O[C@H]2[C@H]1CCC(C)=C1CC[C@@](C)(OC(=O)NCc3ccccc3)[C@@H]12 [compound 79]
T-cell proliferation rate (%) (MDSCs and T cells): ++ (T-cell proliferation rate within the 20-40% range compared to the control group)

C=C1C(=O)O[C@H]2[C@H]1CCC(C)=C1CC[C@@](C)(OC(=O)N(C)C)[C@@H]12 [compound 80]
T-cell proliferation rate (%) (MDSCs and T cells): ++ (T-cell proliferation rate within the 20-40% range compared to the control group)

C=C1C(=O)O[C@H]2[C@H]1CCC(C)=C1CC[C@@](C)(OC(=O)N(CC)CC)[C@@H]12 [compound 81]
T-cell proliferation rate (%) (MDSCs and T cells): ++ (T-cell proliferation rate within the 20-40% range compared to the control group)

C=C1C(=O)O[C@H]2[C@H]1CCC(C)=C1CC[C@@](C)(OC(=O)N3CCCC3)[C@@H]12 [compound 82]
T-cell proliferation rate (%) (MDSCs and T cells): + (T-cell proliferation rate within the 0-20% range compared to the control group)

CC1=C2CC[C@@](C)(OC(=O)N3CCCCC3)[C@@H]2[C@H]2OC(=O)[C@@H](CN3CCCC3)[C@@H]2CC1 [compound 100]
Release rate [1, 12]: 6.5%
Release rate [1, 13]: 14.0%
Release rate [1, 14]: 26.4%
Release rate [1, 15]: 45.2%
Release rate [1, 16]: 51.4%
Release rate [2, 17]: 6.6%
Release rate [2, 18]: 13.8%
Release rate [2, 19]: 25.6%
Release rate [2, 20]: 43.2%
Release rate [2, 21]: 53.0%

CC1=C2CC[C@@](C)(OC(=O)N3CCCCC3)[C@@H]2[C@H]2OC(=O)[C@@H](CN3CCCC3)[C@@H]2CC1 [compound 101]
Release rate [1, 12]: 7.0%
Release rate [1, 13]: 16.0%
Release rate [1, 14]: 28.2%
Release rate [1, 15]: 46.4%
Release rate [1, 16]: 53.6%
Release rate [2, 17]: 7.6%
Release rate [2, 18]: 16.6%
Release rate [2, 19]: 27.4%
Release rate [2, 20]: 46.0%
Release rate [2, 21]: 54.2%
